# Measured values from ChEMBL document CHEMBL1201862, “PubChem BioAssay data set” (2004).
# Active and inactive are the calls of the source.
# Experiments:
# [1] = luciferase reporter signal suppression in cells – H4 neuroglioma cells, luminescence, dose response (AID 1990); assay type: functional, cell-based
# [2] = biological target: T1, RNA-binding protein pos-1 (Caenorhabditis elegans, UniProt G5EF15); assay: disruptors of C. elegans POS-1 RNA interaction – biochemical, fluorescence polarization, dose response (AID 1964);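 further: purified POS-1 fused to maltose binding protein made in E. coli; potency of compounds blocking POS-1 binding to fluorescent RNA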
# T1 sequence (G5EF15 whole entry): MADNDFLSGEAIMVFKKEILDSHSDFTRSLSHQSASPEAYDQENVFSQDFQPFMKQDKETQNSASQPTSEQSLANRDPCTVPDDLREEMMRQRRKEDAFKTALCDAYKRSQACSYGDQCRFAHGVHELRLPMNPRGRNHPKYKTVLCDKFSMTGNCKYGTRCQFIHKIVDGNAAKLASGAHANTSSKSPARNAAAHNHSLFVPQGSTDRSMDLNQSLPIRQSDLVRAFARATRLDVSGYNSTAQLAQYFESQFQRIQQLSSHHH
# [3] = Luminescence Cell-Based Dose Response HTS to Identify Inhibitors of 5'UTR Stem-Loop Driven Prion Protein mRNA Translation in H4 Neuroglioblastoma Cells. [Related pubchem assays: 1827 (Project Summary), 1813 (Primary HTS)]; assay type: functional
# [4] = biological target: T2, Zinc finger protein mex-5 (Caenorhabditis elegans, UniProt Q9XUB2); assay: potency of MEX-5 RNA-binding blockers – biochemical, C. elegans, fluorescence polarization, dose response (AID 1960)
# T2 sequence (Q9XUB2 whole entry): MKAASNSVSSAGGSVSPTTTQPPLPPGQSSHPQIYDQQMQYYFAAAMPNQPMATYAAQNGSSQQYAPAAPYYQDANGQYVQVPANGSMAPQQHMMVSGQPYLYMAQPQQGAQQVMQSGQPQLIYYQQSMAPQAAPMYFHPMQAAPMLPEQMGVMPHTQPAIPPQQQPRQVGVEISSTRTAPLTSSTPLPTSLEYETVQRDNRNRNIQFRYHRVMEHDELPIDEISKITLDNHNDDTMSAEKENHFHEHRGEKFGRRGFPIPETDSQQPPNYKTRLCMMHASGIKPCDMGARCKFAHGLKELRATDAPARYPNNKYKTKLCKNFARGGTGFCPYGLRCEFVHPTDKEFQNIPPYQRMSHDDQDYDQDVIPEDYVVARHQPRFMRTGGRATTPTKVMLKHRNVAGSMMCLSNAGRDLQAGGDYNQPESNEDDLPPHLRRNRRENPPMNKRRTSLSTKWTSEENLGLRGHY
# [5] = alpha-synuclein stem-loop luciferase translation blockers – H4 neuroglioma cells, luminescence, confirmation (AID 1988); assay type: functional, cell-based
# [6] = biological target: Glucose-6-phosphate 1-dehydrogenase (Homo sapiens, UniProt P11413); assay: inhibition of Homo sapiens G6PD, dose series – biochemical, fluorescence, selectivity assay for P. falciparum G6PD inhibitor project, dose response (AID 504792); assay type: functional
# [7] = biological target: Cystic fibrosis transmembrane conductance regulator/Golgi-associated PDZ and coiled-coil motif-containing protein (Homo sapiens, UniProt P13569+Q9HD26); assay: potency against CAL PDZ-peptide interaction – biochemical, fluorescence polarization, Cerulean-tagged CAL PDZ, cherry-picks, dose response (AID 504773)
# [8] = biological target: T3, Replicative DNA helicase DnaB (Mycobacterium tuberculosis, UniProt P9WMR3); assay: DnaB intein splicing inhibitors, dose response, biochemical, cell-free fluorescence (AID 449749); assay type: functional
# T3 sequence (P9WMR3 whole entry): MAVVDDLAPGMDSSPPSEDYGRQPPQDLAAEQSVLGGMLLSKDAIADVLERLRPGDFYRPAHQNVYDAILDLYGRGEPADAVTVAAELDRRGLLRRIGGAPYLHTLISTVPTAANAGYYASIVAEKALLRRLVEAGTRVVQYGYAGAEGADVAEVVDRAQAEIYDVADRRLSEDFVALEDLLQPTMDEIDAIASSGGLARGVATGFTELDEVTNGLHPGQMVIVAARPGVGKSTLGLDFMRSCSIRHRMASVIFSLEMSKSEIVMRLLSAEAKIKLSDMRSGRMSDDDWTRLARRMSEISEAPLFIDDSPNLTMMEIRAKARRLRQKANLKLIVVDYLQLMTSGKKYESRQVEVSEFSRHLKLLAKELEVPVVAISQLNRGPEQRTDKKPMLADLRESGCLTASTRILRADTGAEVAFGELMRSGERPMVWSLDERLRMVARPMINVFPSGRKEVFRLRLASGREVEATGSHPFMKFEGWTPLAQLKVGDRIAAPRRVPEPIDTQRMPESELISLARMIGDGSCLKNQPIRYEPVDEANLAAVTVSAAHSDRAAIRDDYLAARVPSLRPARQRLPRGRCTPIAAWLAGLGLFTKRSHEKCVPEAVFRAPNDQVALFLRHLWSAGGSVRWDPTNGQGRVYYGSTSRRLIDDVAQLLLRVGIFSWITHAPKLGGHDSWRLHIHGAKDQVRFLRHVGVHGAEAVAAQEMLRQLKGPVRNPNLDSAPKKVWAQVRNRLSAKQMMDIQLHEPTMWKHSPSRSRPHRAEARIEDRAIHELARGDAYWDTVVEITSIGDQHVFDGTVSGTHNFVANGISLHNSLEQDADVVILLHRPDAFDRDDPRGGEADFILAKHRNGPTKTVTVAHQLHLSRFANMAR
# Vero = assay: viability of Vero cells under compound – cytotoxicity control for flavivirus capping enzyme inhibitors (AID 588742); assay type: functional; settings: Chlorocebus sabaeus
# Protein RecA = biological target: T4, Protein RecA (Mycobacterium tuberculosis, UniProt P9WHJ3); assay: Fluorescence Cell-Free Homogeneous Dose Retest to Identify Inhibitors of RecA-Intein Splicing Activity. [Related pubchem assays (depositor defined):AID2097, AID2223, AID489010, AID492950]; assay type: functional
# T4 sequence (P9WHJ3 whole entry): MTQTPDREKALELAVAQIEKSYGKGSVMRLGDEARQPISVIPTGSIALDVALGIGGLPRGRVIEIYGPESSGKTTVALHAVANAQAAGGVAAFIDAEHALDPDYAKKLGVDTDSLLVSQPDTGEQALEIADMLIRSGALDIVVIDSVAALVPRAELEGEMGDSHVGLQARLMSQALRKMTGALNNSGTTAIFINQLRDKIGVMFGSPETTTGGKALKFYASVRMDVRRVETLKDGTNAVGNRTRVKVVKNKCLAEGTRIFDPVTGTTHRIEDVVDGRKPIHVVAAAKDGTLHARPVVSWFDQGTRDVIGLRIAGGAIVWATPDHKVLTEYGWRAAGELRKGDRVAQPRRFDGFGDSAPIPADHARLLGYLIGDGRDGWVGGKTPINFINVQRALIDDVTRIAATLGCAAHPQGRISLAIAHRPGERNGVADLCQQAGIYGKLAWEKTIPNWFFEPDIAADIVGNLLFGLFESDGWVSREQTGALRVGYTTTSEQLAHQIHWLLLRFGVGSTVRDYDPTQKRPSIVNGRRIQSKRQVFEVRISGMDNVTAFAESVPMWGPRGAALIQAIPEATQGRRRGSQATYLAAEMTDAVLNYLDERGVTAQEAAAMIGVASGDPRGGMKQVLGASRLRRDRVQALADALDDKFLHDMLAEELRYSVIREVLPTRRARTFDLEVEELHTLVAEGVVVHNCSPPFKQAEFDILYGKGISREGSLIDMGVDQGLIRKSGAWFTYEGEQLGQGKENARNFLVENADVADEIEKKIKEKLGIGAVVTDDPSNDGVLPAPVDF
# Genome polyprotein = Genome polyprotein (dengue virus type 2, UniProt P29990); assay: flavivirus cap methylation enzyme inhibition – biochemical, confirmation dose response, primary screen (AID 588689); assay type: functional
# [9] = disruptors of CAL PDZ reporter peptide binding – biochemical, fluorescence polarization, untagged CAL PDZ, dry powder, dose response (AID 602255); assay type: functional
# [10] = biological target: Tyrosyl-DNA phosphodiesterase 2 (Homo sapiens, UniProt O95551); assay: potency against TDP2 phosphodiesterase activity – biochemical, epi absorbance, IC50, dose response (AID 743297)
# [11] = biological target: T5, High affinity choline transporter 1 (Homo sapiens, UniProt Q9GZV3); assay: human choline transporter blockers, potency – cell-based, 5-point CRC, membrane potential dye, dose response (AID 504840); assay type: functional
# T5 sequence (Q9GZV3 whole entry): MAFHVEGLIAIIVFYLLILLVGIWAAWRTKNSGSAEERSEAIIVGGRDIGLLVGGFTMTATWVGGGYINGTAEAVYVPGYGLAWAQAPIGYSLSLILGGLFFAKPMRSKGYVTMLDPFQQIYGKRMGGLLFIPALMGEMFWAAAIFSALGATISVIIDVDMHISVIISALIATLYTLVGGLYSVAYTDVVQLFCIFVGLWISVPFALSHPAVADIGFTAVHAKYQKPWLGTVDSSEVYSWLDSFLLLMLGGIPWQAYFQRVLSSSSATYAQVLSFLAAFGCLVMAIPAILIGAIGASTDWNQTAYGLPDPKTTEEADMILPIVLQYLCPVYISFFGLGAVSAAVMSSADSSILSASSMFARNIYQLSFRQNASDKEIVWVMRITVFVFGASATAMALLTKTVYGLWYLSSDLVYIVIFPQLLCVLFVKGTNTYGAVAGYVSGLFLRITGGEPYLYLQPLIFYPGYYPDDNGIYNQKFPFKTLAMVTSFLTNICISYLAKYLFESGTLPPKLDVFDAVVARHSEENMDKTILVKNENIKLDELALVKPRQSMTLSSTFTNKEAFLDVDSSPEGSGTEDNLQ
# [12] = biological target: T5, High affinity choline transporter 1; assay: human choline transporter blockers, potency – cell-based, 10-point CRC, membrane potential dye, dose response (AID 588401); assay type: functional;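 further: membrane potential dye fluorescence of choline-evoked depolarization via CHT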
# H9c2 = assay: cells; assay type: functional, cell-based; settings: Rattus norvegicus, H9c2, Myocardium;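 further: confirmatory concentration-response retest of ultra-high-throughput screening hits for modulation of myocardial damage; cell death induced by hydrogen peroxide oxidative stress; compound pretreatment for 60 min then peroxide exposure for 2 h; potency is for protecting the cells against peroxide damage rather than for killing them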
# Melanocortin receptor 4 = Melanocortin receptor 4 (Homo sapiens, UniProt P32245); assay type: functional, cell-based;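 further: Cell-based assay with luminescence read-out, confirmatory dose-response testing for agonist activity of biased ligands at MC4R; human U2OS cells with tagged receptor and beta-arrestin; potency of agonists that increase receptor coupling to beta-arrestin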
# [13] = biological target: DNA (cytosine-5)-methyltransferase 1 (Homo sapiens, UniProt P26358); assay: inhibition of DNA methylation by DNMT1 – biochemical, fluorescent molecular beacon, confirmation (AID 602386); assay type: functional
# [14] = biological target: T6, Small ubiquitin-related modifier 1 (Homo sapiens, UniProt P63165); assay: SUMO1 protein interaction blockers, potency – biochemical, fluorescence polarization, uHTS hits, dose response (AID 624382); assay type: functional; settings: read-out: IC50_Mean
# [15] = biological target: T6, Small ubiquitin-related modifier 1; assay: SUMO1 protein-protein binding blockers, potency – biochemical, FRET, dose response (AID 624383); assay type: functional; settings: read-out: IC50_Mean
# Albumin = Albumin (Bos taurus, UniProt P02769); assay: Counterscreen for inhibitors of T-cell receptor (TCR)-CD3 interaction: Fluorescence-based biochemical high throughput dose response assay to identify inhibitors of T-cell receptor (TCR)-CD3 interaction using a TAMRA-labeled BSA probe.; assay type: functional
# [16] = biological target: T7, Apoptotic protease-activating factor 1 (Homo sapiens, UniProt O14727); assay: SAR analysis of small molecule Activators of Apaf-1 in a Fluorescent assay.; assay type: functional; settings: read-out: EC50_Mean;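 further: caspase-3 cleavage of fluorogenic Rh110 DEVD substrate downstream of apoptosome activation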
# T7 sequence (O14727 whole entry): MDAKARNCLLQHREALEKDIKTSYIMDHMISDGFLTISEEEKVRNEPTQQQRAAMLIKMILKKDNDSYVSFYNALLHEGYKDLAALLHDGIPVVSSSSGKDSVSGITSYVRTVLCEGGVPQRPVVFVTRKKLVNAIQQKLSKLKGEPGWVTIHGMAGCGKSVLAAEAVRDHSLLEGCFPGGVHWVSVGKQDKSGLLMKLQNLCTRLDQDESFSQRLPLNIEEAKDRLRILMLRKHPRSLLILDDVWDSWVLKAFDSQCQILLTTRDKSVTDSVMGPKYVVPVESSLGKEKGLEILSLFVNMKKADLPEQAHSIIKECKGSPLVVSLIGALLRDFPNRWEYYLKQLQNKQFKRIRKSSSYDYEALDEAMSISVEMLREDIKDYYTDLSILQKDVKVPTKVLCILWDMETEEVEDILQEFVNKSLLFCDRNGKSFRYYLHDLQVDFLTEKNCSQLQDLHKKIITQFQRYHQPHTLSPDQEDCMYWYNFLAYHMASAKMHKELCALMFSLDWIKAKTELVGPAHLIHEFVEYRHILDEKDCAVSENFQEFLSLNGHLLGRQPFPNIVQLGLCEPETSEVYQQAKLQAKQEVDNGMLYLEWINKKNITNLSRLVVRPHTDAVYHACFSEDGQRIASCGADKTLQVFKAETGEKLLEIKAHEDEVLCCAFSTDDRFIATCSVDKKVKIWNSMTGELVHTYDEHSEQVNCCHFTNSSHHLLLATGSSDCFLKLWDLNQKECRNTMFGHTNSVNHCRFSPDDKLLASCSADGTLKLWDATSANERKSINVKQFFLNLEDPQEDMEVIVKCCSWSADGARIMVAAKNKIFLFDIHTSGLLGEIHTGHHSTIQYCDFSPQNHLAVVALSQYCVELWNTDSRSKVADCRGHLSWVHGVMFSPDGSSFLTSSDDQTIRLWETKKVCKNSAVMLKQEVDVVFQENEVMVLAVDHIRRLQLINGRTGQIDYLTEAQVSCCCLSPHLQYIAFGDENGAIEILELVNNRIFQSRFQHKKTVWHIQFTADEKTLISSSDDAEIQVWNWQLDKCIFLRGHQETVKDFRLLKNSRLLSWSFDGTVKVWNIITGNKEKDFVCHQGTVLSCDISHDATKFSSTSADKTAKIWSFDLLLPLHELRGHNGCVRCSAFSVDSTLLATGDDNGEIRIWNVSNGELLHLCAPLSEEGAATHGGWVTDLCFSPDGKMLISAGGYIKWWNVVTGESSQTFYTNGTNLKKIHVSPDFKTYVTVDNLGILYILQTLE
# T6 sequence (P63165 whole entry): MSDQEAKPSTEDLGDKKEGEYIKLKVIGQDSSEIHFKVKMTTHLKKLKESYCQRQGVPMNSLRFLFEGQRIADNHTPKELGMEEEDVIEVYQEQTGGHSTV
# Sequence of Tyrosyl-DNA phosphodiesterase 2 (O95551 whole entry): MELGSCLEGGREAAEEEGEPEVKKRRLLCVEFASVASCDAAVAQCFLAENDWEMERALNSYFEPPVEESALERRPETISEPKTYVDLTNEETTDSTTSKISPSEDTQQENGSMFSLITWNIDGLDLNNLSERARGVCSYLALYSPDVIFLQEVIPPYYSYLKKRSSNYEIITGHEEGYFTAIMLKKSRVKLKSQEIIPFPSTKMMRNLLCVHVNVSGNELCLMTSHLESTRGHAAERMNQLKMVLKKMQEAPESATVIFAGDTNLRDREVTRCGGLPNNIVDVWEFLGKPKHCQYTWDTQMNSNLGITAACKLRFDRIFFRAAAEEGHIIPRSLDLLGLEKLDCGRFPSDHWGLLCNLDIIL
# Sequence of Albumin (P02769 whole entry): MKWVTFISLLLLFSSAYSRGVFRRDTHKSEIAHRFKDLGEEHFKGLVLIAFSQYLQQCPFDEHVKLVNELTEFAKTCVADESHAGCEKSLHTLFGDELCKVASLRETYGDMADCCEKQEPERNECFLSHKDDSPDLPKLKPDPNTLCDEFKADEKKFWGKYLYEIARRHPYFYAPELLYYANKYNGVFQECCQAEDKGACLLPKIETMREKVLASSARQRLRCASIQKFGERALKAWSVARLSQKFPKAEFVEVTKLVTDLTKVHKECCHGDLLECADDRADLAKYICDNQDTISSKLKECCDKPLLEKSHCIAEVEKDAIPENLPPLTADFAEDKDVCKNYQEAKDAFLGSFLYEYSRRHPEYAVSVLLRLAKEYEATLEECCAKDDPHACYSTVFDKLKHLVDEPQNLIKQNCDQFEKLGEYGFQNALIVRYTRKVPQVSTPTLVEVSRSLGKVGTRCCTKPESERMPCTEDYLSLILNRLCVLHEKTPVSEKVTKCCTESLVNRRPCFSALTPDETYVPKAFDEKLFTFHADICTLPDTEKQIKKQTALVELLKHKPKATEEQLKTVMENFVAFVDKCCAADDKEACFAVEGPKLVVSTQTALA
# Sequence of Melanocortin receptor 4 (P32245 whole entry): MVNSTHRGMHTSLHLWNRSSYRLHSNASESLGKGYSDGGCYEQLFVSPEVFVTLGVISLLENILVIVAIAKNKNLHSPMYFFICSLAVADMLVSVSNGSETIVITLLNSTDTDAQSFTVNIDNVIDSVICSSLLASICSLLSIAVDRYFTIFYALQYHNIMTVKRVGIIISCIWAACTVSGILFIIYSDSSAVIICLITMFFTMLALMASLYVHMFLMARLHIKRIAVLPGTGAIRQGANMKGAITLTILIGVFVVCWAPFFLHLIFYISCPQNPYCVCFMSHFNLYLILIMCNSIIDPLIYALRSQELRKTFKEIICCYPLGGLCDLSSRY
# Sequence of Glucose-6-phosphate 1-dehydrogenase (P11413 whole entry): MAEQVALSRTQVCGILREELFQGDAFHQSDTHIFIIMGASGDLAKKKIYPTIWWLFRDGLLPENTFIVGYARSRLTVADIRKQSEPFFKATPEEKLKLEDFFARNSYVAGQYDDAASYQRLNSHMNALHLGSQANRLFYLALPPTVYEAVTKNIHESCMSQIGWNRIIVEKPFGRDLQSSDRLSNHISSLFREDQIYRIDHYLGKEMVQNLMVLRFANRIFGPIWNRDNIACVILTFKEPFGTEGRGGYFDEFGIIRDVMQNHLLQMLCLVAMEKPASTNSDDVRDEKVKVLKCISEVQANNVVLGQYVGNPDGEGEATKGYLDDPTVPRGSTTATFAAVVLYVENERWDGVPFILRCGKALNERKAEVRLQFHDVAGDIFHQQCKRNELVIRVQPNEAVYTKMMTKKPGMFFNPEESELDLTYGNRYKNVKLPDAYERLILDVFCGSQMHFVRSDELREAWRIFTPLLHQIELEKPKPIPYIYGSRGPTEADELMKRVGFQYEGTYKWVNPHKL
# Sequence of Cystic fibrosis transmembrane conductance regulator/Golgi-associated PDZ and coiled-coil motif-containing protein (P13569 whole entry, other chains not shown): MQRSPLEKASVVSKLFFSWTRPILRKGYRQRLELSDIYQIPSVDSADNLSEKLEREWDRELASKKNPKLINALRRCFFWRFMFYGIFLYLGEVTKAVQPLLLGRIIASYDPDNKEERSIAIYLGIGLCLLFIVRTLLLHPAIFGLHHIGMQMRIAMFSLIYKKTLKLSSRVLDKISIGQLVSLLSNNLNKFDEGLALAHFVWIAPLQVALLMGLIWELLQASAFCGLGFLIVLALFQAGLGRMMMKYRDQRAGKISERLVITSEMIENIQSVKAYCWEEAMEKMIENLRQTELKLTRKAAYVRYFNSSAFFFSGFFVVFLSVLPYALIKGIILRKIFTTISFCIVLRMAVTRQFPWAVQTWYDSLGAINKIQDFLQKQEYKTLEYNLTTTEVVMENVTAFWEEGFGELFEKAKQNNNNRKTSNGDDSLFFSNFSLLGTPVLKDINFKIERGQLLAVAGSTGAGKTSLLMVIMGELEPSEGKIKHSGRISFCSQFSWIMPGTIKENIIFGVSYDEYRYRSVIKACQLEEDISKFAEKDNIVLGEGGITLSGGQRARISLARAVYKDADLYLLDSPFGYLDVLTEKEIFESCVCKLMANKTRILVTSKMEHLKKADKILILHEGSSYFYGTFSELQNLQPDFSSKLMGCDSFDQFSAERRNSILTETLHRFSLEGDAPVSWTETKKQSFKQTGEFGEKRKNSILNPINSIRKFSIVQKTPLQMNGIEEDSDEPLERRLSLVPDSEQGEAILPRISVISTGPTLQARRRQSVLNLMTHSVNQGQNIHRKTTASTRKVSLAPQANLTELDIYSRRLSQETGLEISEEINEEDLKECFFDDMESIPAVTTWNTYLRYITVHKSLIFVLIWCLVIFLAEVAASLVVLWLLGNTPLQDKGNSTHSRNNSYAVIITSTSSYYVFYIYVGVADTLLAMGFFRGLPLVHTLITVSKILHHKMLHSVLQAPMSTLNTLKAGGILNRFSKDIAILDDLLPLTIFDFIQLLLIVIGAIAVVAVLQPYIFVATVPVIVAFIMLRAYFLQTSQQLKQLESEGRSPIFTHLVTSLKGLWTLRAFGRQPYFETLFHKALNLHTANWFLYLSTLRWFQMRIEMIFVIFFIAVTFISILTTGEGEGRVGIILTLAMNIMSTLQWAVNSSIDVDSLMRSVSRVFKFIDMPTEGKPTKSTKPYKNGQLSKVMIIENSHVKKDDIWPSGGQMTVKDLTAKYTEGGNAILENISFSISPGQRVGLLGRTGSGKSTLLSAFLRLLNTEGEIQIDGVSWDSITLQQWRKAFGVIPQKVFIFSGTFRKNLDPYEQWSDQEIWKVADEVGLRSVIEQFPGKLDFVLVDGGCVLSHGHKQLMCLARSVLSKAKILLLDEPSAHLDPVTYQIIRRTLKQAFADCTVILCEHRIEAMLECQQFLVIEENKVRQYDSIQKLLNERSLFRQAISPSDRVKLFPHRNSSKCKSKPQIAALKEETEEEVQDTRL
# Sequence of Genome polyprotein (P29990 2492-3391 limits assumed): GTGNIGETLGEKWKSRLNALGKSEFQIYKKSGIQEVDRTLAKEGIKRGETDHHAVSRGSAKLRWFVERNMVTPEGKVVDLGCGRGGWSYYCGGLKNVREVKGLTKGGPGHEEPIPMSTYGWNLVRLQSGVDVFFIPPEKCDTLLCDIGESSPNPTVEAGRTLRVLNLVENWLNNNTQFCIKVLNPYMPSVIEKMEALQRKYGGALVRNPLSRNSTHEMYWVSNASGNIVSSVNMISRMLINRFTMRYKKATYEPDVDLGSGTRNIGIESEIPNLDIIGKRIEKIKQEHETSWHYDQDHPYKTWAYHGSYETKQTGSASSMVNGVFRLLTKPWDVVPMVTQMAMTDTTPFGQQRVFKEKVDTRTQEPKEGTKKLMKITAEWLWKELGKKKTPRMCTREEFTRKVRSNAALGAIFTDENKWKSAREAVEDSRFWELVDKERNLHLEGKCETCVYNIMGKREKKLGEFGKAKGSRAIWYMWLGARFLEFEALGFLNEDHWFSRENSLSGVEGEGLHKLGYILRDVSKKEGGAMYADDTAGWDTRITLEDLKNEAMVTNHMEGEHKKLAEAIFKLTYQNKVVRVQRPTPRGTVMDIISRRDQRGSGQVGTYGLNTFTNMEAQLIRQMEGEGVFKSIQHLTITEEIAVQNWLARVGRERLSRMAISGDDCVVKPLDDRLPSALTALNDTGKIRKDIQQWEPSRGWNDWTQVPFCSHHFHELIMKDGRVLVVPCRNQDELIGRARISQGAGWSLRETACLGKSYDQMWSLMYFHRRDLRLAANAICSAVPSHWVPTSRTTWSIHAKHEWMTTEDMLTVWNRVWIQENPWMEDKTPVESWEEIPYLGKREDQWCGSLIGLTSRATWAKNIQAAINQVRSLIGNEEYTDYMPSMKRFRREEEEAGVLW
structure (smiles),measurement,setting,value
CCOc1ccc(S(=O)(=O)Nc2cc(SCC(=O)O)c(O)c3ccccc23)cc1,EC50,[1],> 120 µM (not active)
same,EC50,[2],78.8 µM (active)
same,EC50,[3],> 120 µM (not active)
same,EC50,[4],11.9 µM (inconclusive)
same,EC50,[5],> 120 µM (not active)
same,IC50,[6],28.4 µM (inactive)
same,AC50,[7],36.2 µM (active)
same,AC50,[8],20.7 µM (active)
same,CC50,Vero,26.6 µM (active)
same,EC50,Protein RecA,4.23 µM (active)
same,IC50,Genome polyprotein,7.49 µM (active)
same,AC50,[9],54.4 µM (active)
same,IC50,[10],68.8 µM (inactive)
COc1ccc(-c2nc(C=O)cs2)cc1,IC50,[11],2.88 µM (active)
same,IC50,[12],3.57 µM (active)
O=C(Cc1ccc(-n2c(=O)c3ccccc3n(Cc3ccccc3F)c2=O)cc1)NCC1CCCO1 (centres undefined),IC50,[11],7.14 µM (active)
same,IC50,[12],3.98 µM (active)
COc1cc(-c2cc(NC=O)c3ncc(-c4ccc(C(C)=O)cc4)n3c2)cc(OC)c1OC,IC50,H9c2,> 79 µM (inactive)
same,EC50,Melanocortin receptor 4,> 89.2 µM (inactive)
c1coc(-c2ccc3nncn3c2)c1,IC50,[13],4.58 µM (active)
same,IC50,[14],> 66.6 µM (inactive)
same,IC50,[15],7.19 µM (active)
same,IC50,Albumin,> 94.2 µM (inactive)
CCOc1ccccc1NC(=O)CCS(=O)(=O)c1ccc2c(c1)OCCO2,EC50,[16],> 100 µM (inactive)
